Assay results: ChEMBL document CHEMBL1201862, “PubChem BioAssay data set” (2004)
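Briefly, cells in 96-well plates were exposed to five compound concentrations for 48 h, and endpoints were estimated by linear interpolation. At the GI50, growth is halved.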 Active and inactive are the calls of the source. No stated cut-off is given here; in the data, active = GI50 up to about 1.1 µM and inactive = higher. Where a SMILES comes first, the peptide text is derived from it. [ ]: non-standard residue; d: D form. Phe(4-NO2) = N[CH](Cc1ccc([N+](=O)[O-])cc1)C(=O)O

Legend:
Test in all cases: NCI tumour cell line growth inhibition, 48 h
A549 = system: A549
COLO 205 = system: COLO 205
HCC 2998 = system: HCC 2998
Hs-578T = system: Hs-578T
MCF7 = system: MCF7
MDA-MB-435 = system: MDA-MB-435
MDA-N = system: MDA-N
MOLT-4 = system: MOLT-4
Malme-3M = system: Malme-3M
NCI-H226 = system: NCI-H226
NCI-H23 = system: NCI-H23
NCI-H522 = system: NCI-H522
NCI/ADR-RES = system: NCI/ADR-RES
RXF 393 = system: RXF 393
SN12C = system: SN12C
U-251 = system: U-251
UACC-62 = system: UACC-62
LOX IMVI = system: LOX IMVI
RPMI-8226 = system: RPMI-8226
HOP-92 = system: HOP-92

Row | Structure (SMILES) | GI50 (A549) | GI50 (COLO 205) | GI50 (HCC 2998) | GI50 (Hs-578T) | GI50 (MCF7) | GI50 (MDA-MB-435) | GI50 (MDA-N) | GI50 (MOLT-4) | GI50 (Malme-3M) | GI50 (NCI-H226) | GI50 (NCI-H23) | GI50 (NCI-H522) | GI50 (NCI/ADR-RES) | GI50 (RXF 393) | GI50 (SN12C) | GI50 (U-251) | GI50 (UACC-62) | GI50 (LOX IMVI) | GI50 (RPMI-8226) | GI50 (HOP-92)
1 | c1ccc2nn(C3CCCO3)nc2c1 (configuration not stated) | > 100 µM (inactive) | > 100 µM (inactive) | > 100 µM (inactive) | > 100 µM (inactive) | > 100 µM (inactive) | > 100 µM (inactive) | > 100 µM (inactive) | > 100 µM (inactive) | > 100 µM (inactive) | > 100 µM (inactive) | > 100 µM (inactive) | > 100 µM (inactive) | > 100 µM (inactive) | > 100 µM (inactive) | > 100 µM (inactive) | > 100 µM (inactive) | > 100 µM (inactive) |  |  | 
2 | O=C(CCCN1CCC(Nc2ccc(F)cc2)(c2nnnn2C2CCCCC2)CC1)c1ccc(F)cc1 | 13.1 µM (inactive) | 14.3 µM (inactive) | 16.3 µM (inactive) | 18.5 µM (inactive) | 17.8 µM (inactive) | 16.7 µM (inactive) | 15.5 µM (inactive) | 5.27 µM (inactive) | 29.2 µM (inactive) | 17.2 µM (inactive) | 14.5 µM (inactive) | 16.3 µM (inactive) | 16.3 µM (inactive) | 12.6 µM (inactive) | 31.5 µM (inactive) | 15.3 µM (inactive) | 3.3 µM (inactive) | 19.4 µM (inactive) | 5.42 µM (inactive) | 
3 | CC(N/N=N/c1ccc(-c2nc3ccccc3[nH]2)cc1)C(=O)O (configuration not stated) | 33 µM (inactive) | 25.9 µM (inactive) |  | 33.7 µM (inactive) | 4.21 µM (inactive) | 32.7 µM (inactive) | 27.5 µM (inactive) | 5.01 µM (inactive) | 26.3 µM (inactive) | > 100 µM (inactive) | 62.2 µM (inactive) | 23.3 µM (inactive) | 7.94 µM (inactive) | 34.1 µM (inactive) | 36.3 µM (inactive) | 18.1 µM (inactive) |  | 28.2 µM (inactive) | 1.91 µM (inactive) | > 100 µM (inactive)
4 | CC(=O)O[C@H]1C(=O)[C@@]2(C)[C@H]([C@H](OC(=O)c3ccccc3)[C@]3(O)C[C@H](OC(=O)[C@H](O)[C@@H](NC(=O)c4ccccc4)c4ccccc4)C(C)=C1C3(C)C)[C@]1(OC(C)=O)CO[C@@H]1C[C@@H]2O [PACLITAXEL] |  | 0.00303 µM (active) | 0.00341 µM (active) | 0.00597 µM (active) | 0.00292 µM (active) | 0.00395 µM (active) | 0.00307 µM (active) |  | 0.029 µM (active) |  | 0.00396 µM (active) | 0.00464 µM (active) | 3.11 µM (inactive) | 0.00649 µM (active) | 0.00481 µM (active) | 0.00384 µM (active) | 0.00419 µM (active) | 0.00355 µM (active) | 0.00267 µM (active) | 
5 | Cc1ccc(C)n1-n1c(Cc2ccc(Cl)cc2)n[nH]c1=O | 69 µM (inactive) | 83.6 µM (inactive) |  | > 100 µM (inactive) | 90.4 µM (inactive) | > 100 µM (inactive) | > 100 µM (inactive) | 29 µM (inactive) | 92.5 µM (inactive) | 84.7 µM (inactive) |  | 20.9 µM (inactive) | 40.8 µM (inactive) | 59.3 µM (inactive) | > 100 µM (inactive) | 77.6 µM (inactive) | > 100 µM (inactive) | 59.4 µM (inactive) | 33.3 µM (inactive) | 
6 | COC(=O)CCC(NC(=O)C(CCC(=O)OC)NC(=O)C(CCC(=O)OC)NC(=O)C(CCC(=O)OC)NC(=O)C(CCC(=O)OC)NC(=O)C(Cc1ccc([N+](=O)[O-])cc1)NC(=O)C(CCC(=O)OC)NC(=O)C(CCC(=O)OC)NC(=O)C(CCC(=O)OC)NC(=O)C(CCC(=O)OC)NC(=O)C(CCC(=O)OC)NC(C)=O)C(N)=O (configuration not stated) (Ac-E(OMe)E(OMe)E(OMe)E(OMe)E(OMe)[Phe(4-NO2)]E(OMe)E(OMe)E(OMe)E(OMe)E(OMe)-NH2; configuration not given here) | > 100 µM (inactive) | > 100 µM (inactive) |  | 20 µM (inactive) | > 100 µM (inactive) | > 100 µM (inactive) | > 100 µM (inactive) | > 100 µM (inactive) | > 100 µM (inactive) |  | > 100 µM (inactive) | > 100 µM (inactive) | > 100 µM (inactive) | > 100 µM (inactive) | > 100 µM (inactive) | > 100 µM (inactive) | > 10 µM (inactive) | > 100 µM (inactive) | > 100 µM (inactive) | 
7 | CN1C(=O)C(CCO)(C(C)(C)C)c2ccccc21 (configuration not stated) | > 100 µM (inactive) | > 100 µM (inactive) | > 100 µM (inactive) | > 100 µM (inactive) | > 100 µM (inactive) | > 100 µM (inactive) | > 100 µM (inactive) | > 100 µM (inactive) |  | 97.9 µM (inactive) | > 100 µM (inactive) |  | > 100 µM (inactive) | > 100 µM (inactive) | > 100 µM (inactive) | > 100 µM (inactive) | > 100 µM (inactive) | > 100 µM (inactive) | > 100 µM (inactive) | > 100 µM (inactive)
